Results: US8518372B2, “Coronin 1 modulators for the treatment of autoimmune and Lymphoproliferative disorders and mycobacterial infections” (priority 2006, dated 2013)
Where two headings read alike, the source gives them in different places.

Tests used:
[1] = system: M. bovis BCG in bone marrow derived macrophages; format: cell-based, mice; details: for lysosomal delivery of mycobacteria: infection 1 h, chase 3 h
Mycobacterium bovis BCG = format: cell-based
mycobacteria = test: Bacterial proliferation in presence or absence of calcineurin inhibitors; format: cell-based; details: FIG. 10h
macrophages [2] = test: Protein synthesis in macrophages; format: cell-based, mice
macrophages [3] = test: Macrophage viability
[4] = system: bone marrow derived macrophages; test: Calcium fluorimetry (Fluo3) in macrophages; format: cell-based, mice; details: Fluo-3, FIG. 10a

## C=CC[C@@H]1/C=C(\C)C[C@H](C)C[C@H](OC)[C@H]2O[C@@](O)(C(=O)C(=O)N3CCCC[C@H]3C(=O)O[C@H](/C(C)=C/[C@@H]3CC[C@@H](O)[C@H](OC)C3)[C@H](C)[C@@H](O)CC1=O)[C@H](C)C[C@@H]2OC [FK506, tacrolimus]
[1]; FK506 0.5 μM, FIG. 10g
  lysosomal delivery of mycobacteria: complete relocation of mycobacteria to lysosomes
Mycobacterium bovis BCG; wild type bone marrow derived macrophages, calcineurin inhibitor present, FIG. 10h
  survival of mycobacteria within macrophages: unable to survive within macrophages
mycobacteria
  bacterial proliferation: identical in the presence or absence

## C[C@@H]1C[C@@H]([C@H](O)CC2CC(=O)NC(=O)C2)C(=O)[C@@H](C)C1 [cycloheximide]
[1]
  intracellular routing of mycobacteria: did not result in alteration
Mycobacterium bovis BCG
  survival of mycobacteria: did not result in alteration
Macrophages [2]
  protein synthesis: efficiently blocked protein synthesis
Macrophages [3]
  macrophage viability: without compromising macrophage viability

## C[C@H](CCC(=O)O)C[C@H](C)C[C@H](C)C(=O)/C=C(\O)[C@H](C)C[C@H](C)C/C=C/[C@@H](C)[C@@H](O)[C@@H](C)[C@@H](O)C[C@@H]1CC[C@@](C)([C@H]2CC[C@@](C)([C@@H](C)O)O2)O1 [ionomycin]
[4]; coronin 1 deficient macrophages
  cytosolic Ca2+ flux upon stimulation: no Ca^2+ flux was observed
[4]; macrophages from wild type mice
  cytosolic Ca2+ flux upon stimulation: accompanied with a flux of cytosolic Ca^2+

## CC(=O)OCOC(=O)CN(CC(=O)OCOC(C)=O)c1ccccc1OCCOc1ccccc1N(CC(=O)OCOC(C)=O)CC(=O)OCOC(C)=O [BAPTA-AM]
[1]; BAPTA-AM 1 μM, FIG. 10c,d
  lysosomal delivery of mycobacteria: virtually all mycobacteria were transported to lysosomes
Mycobacterium bovis BCG; BAPTA-AM present, FIG. 10e
  survival of mycobacteria within macrophages: killed
